In ChEMBL document CHEMBL1139650, “In silico fragment-based discovery of DPP-IV S1 pocket binders” (Bioorg Med Chem Lett, 2006):

Target: Dipeptidyl peptidase 4 (Homo sapiens, UniProt P27487)
Assay: Inhibition of DPP4

Sequence of Dipeptidyl peptidase 4 (P27487 whole entry): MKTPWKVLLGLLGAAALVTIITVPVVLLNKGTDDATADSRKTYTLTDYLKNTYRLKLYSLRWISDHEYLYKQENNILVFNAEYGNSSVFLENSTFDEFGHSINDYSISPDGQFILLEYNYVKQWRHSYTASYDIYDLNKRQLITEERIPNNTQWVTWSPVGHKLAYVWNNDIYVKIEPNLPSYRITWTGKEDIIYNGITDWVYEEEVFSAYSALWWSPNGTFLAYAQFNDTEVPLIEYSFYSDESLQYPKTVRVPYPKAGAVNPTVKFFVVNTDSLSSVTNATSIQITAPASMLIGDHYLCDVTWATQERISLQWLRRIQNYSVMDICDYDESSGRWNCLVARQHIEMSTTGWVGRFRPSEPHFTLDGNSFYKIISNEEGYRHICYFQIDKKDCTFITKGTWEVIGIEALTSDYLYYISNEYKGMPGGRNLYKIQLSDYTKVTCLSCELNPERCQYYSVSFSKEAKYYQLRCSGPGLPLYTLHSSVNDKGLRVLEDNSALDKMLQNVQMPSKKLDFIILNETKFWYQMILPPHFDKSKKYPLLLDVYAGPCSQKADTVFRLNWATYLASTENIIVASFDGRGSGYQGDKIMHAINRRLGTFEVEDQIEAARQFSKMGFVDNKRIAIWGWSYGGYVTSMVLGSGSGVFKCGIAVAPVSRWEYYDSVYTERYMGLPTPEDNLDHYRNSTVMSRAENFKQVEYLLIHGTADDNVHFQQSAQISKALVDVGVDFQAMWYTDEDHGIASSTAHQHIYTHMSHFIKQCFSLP

**Q.** How did the IC50 turn out when `N[C@H](c1ccccc1)[C@@H](N)c1ccccc1` was run?
**A.** The IC50 was 75 µM.

**Q.** `N[C@H](c1ccccc1)[C@H](N)c1ccccc1` was tested. Which IC50 did it give?
**A.** The IC50 was 45 µM.
